From US10913983B2, “Sensitivity markers and uses for CDK7 inhibitors in breast cancers” (UNIVERSITY OF SOUTH CAROLINA, priority 2017, dated 2021)

Legend:
Assay type in all cases: cell-based
JIMT-1 = assay: Cell proliferation MTT assay; details: JIMT-1, 7 days, MTT; read-out: 7 day IC50
Description: (§1) Cells were seeded in 12-well plates at densities ranging from 10000-30000 cells/well and after 24 hours cells were treated with 10, 40 and 100 nM THZ1 in triplicate. After 7 days the cells were imaged using Zeiss Axiovert 200 microscope using a 20× objective lens. Additionally, cells were plated in 96-well plates at a density of 2000 cells/well and after 24 hours treated with 0-10 μM THZ1. After 2 and 7 days the growth of the cells was measured by MTT assay.
(§2) All results were presented as mean±standard deviation of 4-8 parallel assessments. Similar results were obtained from a minimum of two independent experiments. […] Densitometry was performed on duplicate immunoblots using ImageLab software (Biorad) and normalized to tubulin loading controls and then correlated with the THZ1 IC50 values of each cell line. Statistical analyses were performed using SPSS 18.0 (SPSS Inc). Bi-variant scatter graphs and Spearman rank analyses were performed to evaluate associations between protein levels, mRNA and response to inhibition. IC50 values were calculated for MTT assays using CompuSyn software.

MCF7 = assay: Cell proliferation MTT assay; details: MCF7, 7 days, read-out: 7 day IC50
Description: as §1, §2

MDA-MB-231 = assay: Cell proliferation MTT assay; details: MDA-MB-231, 7 days, read-out: 7 day IC50
Description: as §1, §2

MDA-MB-361 = assay: Cell proliferation MTT assay; details: MDA-MB-361, 7 days, read-out: 7 day IC50
Description: as §1, §2

SKBR3 = assay: Cell proliferation MTT assay; details: SKBR3, 7 days, read-out: 7 day IC50
Description: as §1, §2

T47D = assay: Cell proliferation MTT assay; details: 7 days, read-out: 7 day IC50
Description: as §1, §2

ZR-75-1 = assay: Cell proliferation MTT assay; details: ZR-75-1, 7 days, read-out: 7 day IC50
Description: as §1, §2

[1] = system: panel of breast cancer cell lines; assay: Cell proliferation MTT assay, cell line panel; details: 7 days
Description: as §1, §2
To investigate the effect of CDK7 inhibition in a time and dose dependent manner, an extended panel of 11 breast cancer cell lines were screened for response to THZ1 after 2 and 7 days of treatment.

IC50 (MCF7): 32.1 µM | IC50 (MDA-MB-231): 39.5 µM | IC50 (MDA-MB-361): 4.9 µM | IC50 (SKBR3): 8.9 µM | IC50 (T47D): 8.5 µM
SMILES: CC(C)c1cnn2c(NCc3ccccc3)cc(NCCCCCCN)nc12 [BS-181]
IC50 (JIMT-1): 11.1 µM | IC50 (ZR-75-1): 19.6 µM | growth inhibition ([1]; all tested breast cancer cell lines): inhibited the growth of all tested breast cancer cell lines | efficiency of growth inhibition compared with THZ1 ([1]; cell line panel): much less efficient than THZ1
